Source: patent US20230022157A1 (Achillion Pharmaceuticals, Inc., priority 2018, published 2023)
Where two headings read alike, the source gives them in different places.

Target: T1, Human Factor D (Homo sapiens, UniProt P00746)
T1 construct: purified from human serum; purchased Complement Technology, Inc; host or cells: human serum (natural protein, not recombinant)
Test: Human Factor D Assay
Format: biochemical
Conditions: Human Factor D 80 nM, substrate Z-L-Lys-SBzl, read-out: IC50 (Stars)
Outline: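 Serum-purified human factor D (80 nM final) preincubated 5 min at room temperature with test compound in 50 mM Tris, 1M NaCl, pH 7.5. Z-L-Lys-SBzl substrate and DTNB then added, each at 100 μM final. IC50 from nonlinear regression of reaction rate against compound concentration.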

T1 sequence (P00746 26-253): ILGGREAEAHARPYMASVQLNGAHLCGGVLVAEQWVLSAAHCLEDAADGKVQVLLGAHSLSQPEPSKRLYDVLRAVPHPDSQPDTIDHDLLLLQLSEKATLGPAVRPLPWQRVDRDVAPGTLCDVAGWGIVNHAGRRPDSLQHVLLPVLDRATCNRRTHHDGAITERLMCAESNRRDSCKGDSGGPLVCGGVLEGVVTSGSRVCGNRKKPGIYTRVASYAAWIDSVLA

Structure (SMILES) | IC50 (Table 2) [µM] | IC50 (assay of Example 3) [µM]
CC(=O)c1nn(CC(=O)N2[C@H](C(=O)N[C@H](C)CCc3ccccc3)C[C@@]3(C)C[C@@H]23)c2ccc(-c3cnc(C)nc3)cc12 [Compound 13, (1R,3S,5R)-2-(2-(3-Acetyl-5-(2-methylpyrimidin-5-yl)-1H-indazol-1-yl)acetyl)-5-methyl-N—((R)-4-phenylbutan-2-yl)-2-azabicyclo[3.1.0]hexane-3-carboxamide] | – | < 1
CC(=O)c1nn(CC(=O)N2[C@H](C(=O)NCCc3ccccn3)C[C@@]3(C)C[C@@H]23)c2c(C)cc(-c3cnc(C)nc3)cc12 [Compound 6, (1R,3S,5R)-2-(2-(3-Acetyl-7-methyl-5-(2-methylpyrimidin-5-yl)-1H-indazol-1-yl)acetyl)-5-methyl-N-(2-(pyridin-2-yl)ethyl)-2-azabicyclo[3.1.0]hexane-3-carboxamide] | – | < 1
CC(=O)c1cn(CC(=O)N2[C@H](C(=O)Nc3nc(Br)ccc3Cl)C[C@@]3(C)C[C@@H]23)c2c(C)cc(-c3cnc(CO)nc3)cc12 [Compound 84, (1R,3S,5R)-2-(2-(3-acetyl-5-(2-(hydroxymethyl)pyrimidin-5-yl)-7-methyl-1H-indol-1-yl)acetyl)-N-(6-bromo-3-chloropyridin-2-yl)-5-methyl-2-azabicyclo[3.1.0]hexane-3-carboxamide] | < 1 | –
CC(=O)c1nn(CC(=O)N2[C@H](C(=O)Nc3nc(Br)ccc3C)C[C@@]3(C)C[C@@H]23)c2c(C)cc(-c3ccc(CO)nc3)cc12 [Compound 82, (1R,3S,5R)-2-(2-(3-acetyl-5-(6-(hydroxymethyl)pyridin-3-yl)-7-methyl-1H-indazol-1-yl)acetyl)-N-(6-bromo-3-methylpyridin-2-yl)-5-methyl-2-azabicyclo[3.1.0]hexane-3-carboxamide] | < 1 | –
CC(=O)c1cn(CC(=O)N2[C@H](C(=O)Nc3nc(Br)c(F)cc3C)C[C@@]3(C)C[C@@H]23)c2c(C)cc(-c3cnc(CO)nc3)cc12 [Compound 78, (1R,3S,5R)-2-(2-(3-acetyl-5-(2-(hydroxymethyl)pyrimidin-5-yl)-7-methyl-1H-indol-1-yl)acetyl)-N-(6-bromo-5-fluoro-3-methylpyridin-2-yl)-5-methyl-2-azabicyclo[3.1.0]hexane-3-carboxamide] | < 1 | –
CC(=O)c1cn(CC(=O)N2[C@H](C(=O)Nc3cncc(Br)n3)C[C@@]3(C)C[C@@H]23)c2c(C)cc(-c3cnc(C)nc3)cc12 [Compound 155, (1R,3S,5R)-2-(2-(3-acetyl-7-methyl-5-(2-methylpyrimidin-5-yl)-1H-indol-1-yl)acetyl)-N-(6-bromopyrazin-2-yl)-5-methyl-2-azabicyclo[3.1.0]hexane-3-carboxamide] | < 1 | –
CC(=O)c1nn(CC(=O)N2[C@H](C(=O)NC(C)Cc3ccco3)C[C@@]3(C)C[C@@H]23)c2c(C)cc(-c3cnc(C)nc3)cc12 (stereo partly drawn) [Compound 180, (1R,3S,5R)-2-{2-[3-acetyl-7-methyl-5-(2-methylpyrimidin-5-yl)indazol-1-yl]acetyl}-N-[1-(furan-2-yl)propan-2-yl]-5-methyl-2-azabicyclo[3.1.0]hexane-3-carboxamide] | < 1 | –
CCCCC[C@@H](C)NC(=O)[C@@H]1C[C@@]2(C)C[C@H]2N1C(=O)Cn1nc(C(C)=O)c2cc(-c3cnc(C)nc3)ccc21 [Compound 17, (1R,3S,5R)-2-(2-(3-Acetyl-5-(2-methylpyrimidin-5-yl)-1H-indazol-1-yl)acetyl)-N—((R)-heptan-2-yl)-5-methyl-2-azabicyclo[3.1.0]hexane-3-carboxamide] | – | < 1
CC(=O)c1cn(CC(=O)N2C[C@H]3C[C@H]3[C@H]2C(=O)Nc2nc(Br)ccc2C)c2c(C)cc(-c3cnc(CO)nc3)cc12 [Compound 79, (1R,2S,5S)-3-(2-(3-acetyl-5-(2-(hydroxymethyl)pyrimidin-5-yl)-7-methyl-11H-indol-1-yl)acetyl)-N-(6-bromo-3-methylpyridin-2-yl)-3-azabicyclo[3.1.0]hexane-2-carboxamide] | < 1 | –
CC(=O)c1cn(CC(=O)N2[C@H](C(=O)Nc3nc(C(F)(F)F)ccc3Cl)C[C@@]3(C)C[C@@H]23)c2c(C)cc(-c3cnc(C)nc3)cc12 [Compound 233, (1R,3S,5R)-2-(2-(3-acetyl-7-methyl-5-(2-methylpyrimidin-5-yl)-1H-indol-1-yl)acetyl)-N-(3-chloro-6-(trifluoromethyl)pyridin-2-yl)-5-methyl-2-azabicyclo[3.1.0]hexane-3-carboxamide] | < 1 | –
COCc1ccc(Br)nc1NC(=O)[C@@H]1C[C@@]2(C)C[C@H]2N1C(=O)Cn1cc(C(C)=O)c2cc(-c3cnc4cc(C)nn4c3)cc(C)c21 [Compound 215, (1R,3S,5R)-2-(2-(3-acetyl-7-methyl-5-(2-methylpyrazolo[1,5-a]pyrimidin-6-yl)-1H-indol-1-yl)acetyl)-N-(6-bromo-3-(methoxymethyl)pyridin-2-yl)-5-methyl-2-azabicyclo[3.1.0]hexane-3-carboxamide] | < 1 | –

Results, then the compound that gave them:

IC50 (Table 2) [µM] | IC50 (assay of Example 3) [µM] | Structure (SMILES)
< 1 | – | CC(=O)c1cn(CC(=O)N2[C@H](C(=O)Nc3nc(Br)ccc3C)C[C@@]3(C)C[C@@H]23)c2c(C)cc(-c3cnc(CO)nc3)cc12 [Compound 62, (1R,3S,5R)-2-(2-(3-acetyl-5-(2-(hydroxymethyl)pyrimidin-5-yl)-7-methyl-11H-indol-1-yl)acetyl)-N-(6-bromo-3-methylpyridin-2-yl)-5-methyl-2-azabicyclo[3.1.0]hexane-3-carboxamide]
< 1 | – | CC(=O)c1cn(CC(=O)N2[C@H](C(=O)Nc3nc(C(F)(F)F)ccc3C)C[C@@]3(C)C[C@@H]23)c2c(C)cc(-c3cnc4cc(C5CC5)nn4c3)cc12 [Compound 196, (1R,3S,5R)-2-(2-(3-acetyl-5-(2-cyclopropylpyrazolo[1,5-a]pyrimidin-6-yl)-7-methyl-1H-indol-1-yl)acetyl)-5-methyl-N-(3-methyl-6-(trifluoromethyl)pyridin-2-yl)-2-azabicyclo[3.1.0]hexane-3-carboxamide]
< 1 | – | CC(=O)c1cn(CC(=O)N2[C@H](C(=O)Nc3nc(C(F)(F)F)ccc3C)C[C@@]3(C)C[C@@H]23)c2c(C)nc(-c3cnc(C)nc3)cc12 [Compound 200, (1R,3S,5R)-2-{2-[3-acetyl-7-methyl-5-(2-methylpyrimidin-5-yl)pyrrolo[2,3-c]pyridin-1-yl]acetyl}-5-methyl-N-[3-methyl-6-(trifluoromethyl)pyridin-2-yl]-2-azabicyclo[3.1.0]hexane-3-carboxamide]
< 1 | – | CC(=O)c1nn(CC(=O)N2[C@H](C(=O)Nc3nc(C(F)(F)F)ccc3C)C[C@@]3(C)C[C@@H]23)c2c(C)cc(-c3cnc4cc(CO)nn4c3)cc12 [Compound 227, (1R,3S,5R)-2-(2-(3-acetyl-5-(2-(hydroxymethyl)pyrazolo[1,5-a]pyrimidin-6-yl)-7-methyl-1H-indazol-1-yl)acetyl)-5-methyl-N-(3-methyl-6-(trifluoromethyl)pyridin-2-yl)-2-azabicyclo[3.1.0]hexane-3-carboxamide]
< 1 | – | CC(=O)c1nn(CC(=O)N2C[C@H]3C[C@H]3[C@H]2C(=O)Nc2nc(Br)c(F)cc2C)c2c(C)cc(-c3cnc(CO)nc3)cc12 [Compound 76, (1R,2S,5S)-3-(2-(3-acetyl-5-(2-(hydroxymethyl)pyrimidin-5-yl)-7-methyl-11H-indazol-1-yl)acetyl)-N-(6-bromo-5-fluoro-3-methylpyridin-2-yl)-3-azabicyclo[3.1.0]hexane-2-carboxamide]
< 1 | – | CC(=O)c1nn(CC(=O)N2[C@H](C(=O)N[C@@H](c3ccccc3)C(F)(F)F)C[C@@]3(C)C[C@@H]23)c2c(C)cc(-c3cnc(C)nc3)cc12 [Compound 85, (1R,3S,5R)-2-{2-[3-acetyl-7-methyl-5-(2-methylpyrimidin-5-yl)indazol-1-yl]acetyl}-5-methyl-N-[(1S)-2,2,2-trifluoro-1-phenylethyl]-2-azabicyclo[3.1.0]hexane-3-carboxamide]
< 1 | – | CC(=O)c1nn(CC(=O)N2[C@H](C(=O)NC(C)c3cccnn3)C[C@@]3(C)C[C@@H]23)c2c(C)cc(-c3cnc(C)nc3)cc12 (stereo partly drawn) [Compound 189, (1R,3S,5R)-2-{2-[3-acetyl-7-methyl-5-(2-methylpyrimidin-5-yl)indazol-1-yl]acetyl}-5-methyl-N-[1-(pyridazin-3-yl)ethyl]-2-azabicyclo[3.1.0]hexane-3-carboxamide]
< 1 | – | CC(=O)c1nn(CC(=O)N2C[C@H]3C[C@H]3[C@H]2C(=O)Nc2cncc(Br)n2)c2c(C)cc(-c3cnc(CO)nc3)cc12 [Compound 74, (1R,2S,5S)-3-(2-(3-acetyl-5-(2-(hydroxymethyl)pyrimidin-5-yl)-7-methyl-11H-indazol-1-yl)acetyl)-N-(6-bromopyrazin-2-yl)-3-azabicyclo[3.1.0]hexane-2-carboxamide]
< 1 | – | CC(=O)c1nn(CC(=O)N2[C@H](C(=O)Nc3nc(Br)ccc3C)C[C@@]3(C)C[C@@H]23)c2c(C)cc(-c3ccnc(CO)c3)cc12 [Compound 132, (1R,3S,5R)-2-(2-(3-acetyl-5-(2-(hydroxymethyl)pyridin-4-yl)-7-methyl-1H-indazol-1-yl)acetyl)-N-(6-bromo-3-methylpyridin-2-yl)-5-methyl-2-azabicyclo[3.1.0]hexane-3-carboxamide]
< 1 | – | CC(=O)c1cn(CC(=O)N2[C@H](C(=O)Nc3nc(C(F)(F)F)ccc3C)C[C@@]3(C)C[C@@H]23)c2cc(F)c(-c3cnc4cc(C)nn4c3)cc12 [Compound 230, (1R,3S,5R)-2-(2-(3-acetyl-6-fluoro-5-(2-methylpyrazolo[1,5-a]pyrimidin-6-yl)-1H-indol-1-yl)acetyl)-5-methyl-N-(3-methyl-6-(trifluoromethyl)pyridin-2-yl)-2-azabicyclo[3.1.0]hexane-3-carboxamide]
